pEC50, pIC50: −log10 of the molar value.
Tests used:
[1] = target: T1, PTK2-phosphorylation at tyrosine 397 (pY397) (Homo sapiens, UniProt Q05397); experiment: Phospho-PTK2 (pY397) Assay in PC-3 cells; format: cell-based; settings: PC-3 prostate carcinoma cells, 2 h incubation; read-out: PC3pPTK2 Y397 EC50
T1 construct: endogenous in cells; host or cells: PC-3 (ATCC CRL-1435)
Method: This cellular test is used to determine the influence of PTK2-inhibitors on the state of the PTK2-phosphorylation at tyrosine 397 (pY397).
PC-3 cells (prostate carcinoma, ATCC CRL-1435) are grown in cell culture flasks (175 cm^2) with F12 Kaighn's Medium (Gibco, No.: 21127) with the addition of 10% foetal calf serum (Invitrogen, No.: 16000-044). The cultures are incubated in the incubator at 37° C. and 5% CO2 and run twice a week.
For the test, 2×10^4 cells pro well/[…] are plated out in 96-well microtitre plates (Costar, No.: 3598) and incubated overnight in the incubator at 37° C. and 5% CO2. The test compounds (10 μL from serial dilution) are added the next day. The concentration of the test compounds usually covers a range of 50 μM and 0.8 nM. The test compounds (stock solution: 10 mM in 100% DMSO) are diluted in medium/medium 10% DMSO such that the final concentration is 1% DMSO. The cells are then incubated in the incubator at 37° C. and 5% CO2 for 2 h. Then the culture supernatant is removed and the cells are fixed with 150 μL 4% formaldehyde in D-PBS for 20 min at RT. The cell lawn is washed five times with 200 μL 0.1% Triton X-100 in D-PBS for 5 min in each case and then incubated for 90 min with blocking buffer (5% skimmed milk powder (Maresi Fixmilch) in TBST (25 mM Tris/HCl, pH 8.0, 150 mM NaCl, 0.05% Tween 20). The blocking buffer is replaced by 50 μL of the first antibody anti-phospho PTK2 [pY397] rabbit monoclonal (Invitrogen/Biosource, No.: 44-625G), which is diluted 1:200 in blocking buffer. For control purposes, alternatively a PTK2 [total] antibody (clone 4.47 mouse monoclonal, Upstate, No.: 05-537), diluted 1:400 in blocking buffer is used. This incubation is carried out at 4° C. overnight. Then the cell lawn is washed five times with 100 μL of 0.1% Tween in D-PBS for 5 min in each case and 50 μL/well of second antibody are added. In order to detect bound phospho-PTK2 [pY397] antibody a goat-anti-rabbit antibody is used which is coupled with horseradish peroxidase (Dako, No.: P0448; 1:500 dilution in blocking buffer). In order to detect bound PTK2 [total]-antibodies a rabbit-anti-mouse antibody is used, which is also coupled with horseradish peroxidase (Dako, No.: PO161; 1:1000 dilution in blocking buffer). This incubation is carried out for 1 h at RT with gentle shaking. The cell lawn is then again washed five times with 100 μL of 0.1% Tween in D-PBS for 5 min in each case. […] The EC50 values are determined from concentration-activity analyses by iterative calculation with the aid of a sigmoidal curve analysis algorithm (FIFTY, based on GraphPAD Prism Version 3.03) with a variable Hill coefficient.

PTK2 = target: T2, PTK2 (Homo sapiens, UniProt Q05397); experiment: PTK2 Enzyme Test (DELFIA assay, poly-Glu-Tyr substrate); format: biochemical; settings: active PTK2 enzyme, 50 μM ATP in ATP Mix, 1 h pre-incubation
T2 construct: purchased Invitrogen PV3832
T2 sequence (Q05397 whole entry): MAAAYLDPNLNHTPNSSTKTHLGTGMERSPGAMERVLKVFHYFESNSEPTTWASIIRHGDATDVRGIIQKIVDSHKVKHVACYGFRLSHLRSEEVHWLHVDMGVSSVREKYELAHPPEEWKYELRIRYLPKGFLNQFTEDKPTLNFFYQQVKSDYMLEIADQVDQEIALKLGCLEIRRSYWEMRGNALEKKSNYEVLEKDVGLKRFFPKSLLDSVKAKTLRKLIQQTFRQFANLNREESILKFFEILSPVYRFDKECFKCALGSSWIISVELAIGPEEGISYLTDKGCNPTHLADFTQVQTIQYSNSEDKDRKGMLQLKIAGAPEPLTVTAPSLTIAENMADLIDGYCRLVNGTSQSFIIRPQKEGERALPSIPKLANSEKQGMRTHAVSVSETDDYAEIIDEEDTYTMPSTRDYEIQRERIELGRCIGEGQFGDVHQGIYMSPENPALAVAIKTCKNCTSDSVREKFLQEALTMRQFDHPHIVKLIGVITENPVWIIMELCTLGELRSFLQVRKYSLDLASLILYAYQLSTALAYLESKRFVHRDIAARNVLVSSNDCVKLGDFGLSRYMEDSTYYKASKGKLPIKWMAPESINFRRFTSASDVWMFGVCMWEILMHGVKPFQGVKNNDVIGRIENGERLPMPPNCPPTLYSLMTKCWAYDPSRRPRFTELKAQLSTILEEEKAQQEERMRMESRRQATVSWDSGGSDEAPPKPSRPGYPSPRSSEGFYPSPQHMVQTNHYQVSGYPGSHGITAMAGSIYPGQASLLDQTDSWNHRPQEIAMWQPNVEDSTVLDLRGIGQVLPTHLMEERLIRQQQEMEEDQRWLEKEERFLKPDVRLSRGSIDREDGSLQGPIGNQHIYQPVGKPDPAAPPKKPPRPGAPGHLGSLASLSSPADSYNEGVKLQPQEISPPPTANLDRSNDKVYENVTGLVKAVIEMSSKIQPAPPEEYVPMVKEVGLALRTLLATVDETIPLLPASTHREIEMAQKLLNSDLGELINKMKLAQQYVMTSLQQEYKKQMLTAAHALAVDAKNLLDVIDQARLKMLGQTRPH
Method: This test uses active PTK2 enzyme (Invitrogen Code PV3832) and poly-Glu-Tyr (4:1, Sigma P-0275) as the kinase substrate. The kinase activity is detected by means of the phosphorylation of the substrate in a DELFIA™ assay. The phosphorylated substrate is detected with the Europium-labelled phosphotyrosine antibody PY20 (Perkin Elmer, No.: AD0038).
In order to determine concentration-activity curves with PTK2-inhibitors the compounds are serially diluted in 10% DMSO/H2O and 10 μL of each dilution are dispensed per well in a 96-well microtitre plate (clear U-shaped base plate, Greiner No. 650101) (the inhibitors are tested in duplicates) and mixed with 10 μL/well of PTK2 kinase (0.01 μg/well). PTK2 kinase is diluted accordingly beforehand with kinase dilution buffer (20 mM TRIS/HCl pH 7.5, 0.1 mM EDTA, 0.1 mM EGTA, 0.286 mM sodium orthovanadate, 10% glycerol with the addition of freshly prepared BSA (fraction V 1 mg/mL) and DTT (1 mM)). The test compound and the PTK2 kinase are pre-incubated for 1 h at RT and shaken at 500 rpm. Then 20 μL ATP Mix (30 mM TRIS/HCl pH 7.5, 0.02% Brij, 0.2 mM sodium orthovanadate, 10 mM magnesium acetate, 0.1 mM EGTA, 1× Phosphatase Inhibitor Cocktail 1 (Sigma, No.: P2850), 50 μM ATP (Sigma, No.: A3377; 15 mM stock solution)) are added. The reaction is started by the addition of 10 μL/well of poly (Glu,Tyr) substrate (25 μg/well poly (Glu,Tyr), 0.05 μg/well biotinylated poly (Glu,Tyr) dissolved in 250 mM TRIS/HCl pH 7.5, 9 mM DTT)—the final concentration of DMSO is 2%. After 1 h kinase reaction (the plates are shaken at 500 rpm), the reaction is stopped by the addition of 12 μL/well of 100 mM EDTA, pH 8. And shaken for a further 5 min at RT (500 U/min).
55 μL of the reaction mixture are transferred into a streptavidin plate (Strepta Well High Bind (transparent, 96-well) made by Roche, No.: 11989685001) and incubated for 1 h at RT (shaking at 500 rpm). Then the microtitre plate is washed three times with 200 μL/well D-PBS (Invitrogen, No.:14190). 100 μL of 1:2000 diluted DELFIA Eu-N1 Anti-Phosphotyrosine PY20 antibody (Perkin Elmer, No.: AD0038, 1:2000 diluted in DELFIA test buffer (Perkin Elmer, No.: 1244-111)) is then added and it is incubated for 1 h at RT (shaking at 500 rpm). Then the plate is washed three times with 200 μL/well DELFIA washing buffer (Perkin Elmer, No.: 1244-114), 200 μL/well strengthening solution (Perkin Elmer, No.: 1244-105) is added and the whole is incubated for 10 min at RT (shaking at 300 rpm).
The time-delayed europium fluorescence is then measured in a microtitre plate reader (Victor, Perkin Elmer). The positive control consists of wells that contain solvent (2% DMSO in test buffer) and display uninhibited kinase activity. Wells that contain test buffer instead of enzyme act as a control for the background kinase activity.
The IC50 values are determined from concentration-activity analyses by iterative calculation using a sigmoidal curve analysis algorithm (FIFTY, based on GraphPAD Prism Version 3.03) with a variable Hill coefficient.

T1 sequence (Q05397 whole entry): as above

pEC50 [1]	pIC50 (PTK2)	SMILES
9.70	8.52	COc1cc(C(=O)N[C@@H]2CCN(C)C[C@H]2F)c(F)cc1Nc1ncc(C(F)(F)F)c(NCc2ccc(C)cc2N(C)S(C)(=O)=O)n1 [Example 19]
9.66	8.70	COc1cc(C(=O)NCCN2CCCCC2)ccc1Nc1ncc(C(F)(F)F)c(NCc2ccc(C)cc2N(C)S(C)(=O)=O)n1 [Example 20]
9.66	8.30	CCOCCNC(=O)c1ccc(Nc2ncc(C(F)(F)F)c(NCc3ccc(C)cc3N(C)S(C)(=O)=O)n2)c(OC)c1 [Example 21]
9.66	8.52	COc1cc(C(=O)N[C@H]2CCN(C)C[C@H]2F)c(F)cc1Nc1ncc(C(F)(F)F)c(NCc2ccc(C)cc2N(C)S(C)(=O)=O)n1 [Example 22]
9.64	9.00	COc1cc(C(=O)N[C@H]2CCN(C)C2)c(F)cc1Nc1ncc(C(F)(F)F)c(NCc2ccc(C)cc2N(C)S(C)(=O)=O)n1 [Example 23]
9.64	8.52	COc1cc(C(=O)N[C@@H]2CCN(C)C[C@@H]2F)c(F)cc1Nc1ncc(C(F)(F)F)c(NCc2ccc(C)cc2N(C)S(C)(=O)=O)n1 [Example 24]
9.62	9.00	CNCc1ccc(Nc2ncc(C(F)(F)F)c(NCc3ccc(C)cc3N(C)S(C)(=O)=O)n2)c(OC)c1 [Example 25]
9.60	8.52	COc1cc(C(=O)NC2CCC3C(CCN3C)C2)ccc1Nc1ncc(C(F)(F)F)c(NCc2ccc(C)cc2N(C)S(C)(=O)=O)n1 (stereo not shown) [Example 26]
9.57	8.40	COc1cc(C(=O)NC2CCC(NS(C)(=O)=O)CC2)ccc1Nc1ncc(C(F)(F)F)c(NCc2ccc(C)cc2N(C)S(C)(=O)=O)n1 (stereo not shown) [Example 27]
9.54	8.70	COc1ccc(CNc2nc(Nc3cc(F)c(C(=O)N[C@H]4CCN(C)C4)cc3OC)ncc2C(F)(F)F)c(N(C)S(C)(=O)=O)c1 [Example 29]
9.54	8.40	COc1cc(C(=O)NC2CCN(CC3CC3)CC2)ccc1Nc1ncc(C(F)(F)F)c(NCc2ccc(C)cc2N(C)S(C)(=O)=O)n1 [Example 30]
9.54	9.00	COc1cc(C(=O)NC2CCC(N(C)C(C)C)CC2)ccc1Nc1ncc(C(F)(F)F)c(NCc2ccc(C)cc2N(C)S(C)(=O)=O)n1 (stereo not shown) [Example 31]
9.52	8.40	COc1cc(N2CCN(C3COC3)CC2)ccc1Nc1ncc(C(F)(F)F)c(NCc2ccc(C)cc2N(C)S(C)(=O)=O)n1 [Example 32]
9.52	8.70	COc1cc(N2CCN(CC(=O)N(C)C)CC2)ccc1Nc1ncc(C(F)(F)F)c(NCc2ccc(C)cc2N(C)S(C)(=O)=O)n1 [Example 33]
9.51	8.52	COc1cc(C(N)=O)c(Br)cc1Nc1ncc(C(F)(F)F)c(NCc2ccc(C)cc2N(C)S(C)(=O)=O)n1 [Example 34]
9.51	8.52	COc1cc(CNC2CCOCC2)ccc1Nc1ncc(C(F)(F)F)c(NCc2ccc(C)cc2N(C)S(C)(=O)=O)n1 [Example 35]
9.49	8.70	COc1cc(C(=O)N[C@@H]2CCN(C)C2)c(F)cc1Nc1ncc(C(F)(F)F)c(NCc2ccc(C)cc2N(C)S(C)(=O)=O)n1 [Example 36]
9.46	8.40	COc1cc(C(=O)NC2CCN(C3CC3)CC2)ccc1Nc1ncc(C(F)(F)F)c(NCc2ccc(C)cc2N(C)S(C)(=O)=O)n1 [Example 38]
9.43	9.00	COc1ccc(CNc2nc(Nc3cc(F)c(C(=O)NC4CCN(C)CC4)cc3OC)ncc2C(F)(F)F)c(N(C)S(C)(=O)=O)c1 [Example 40]
9.41	8.70	COc1ccc(CNc2nc(Nc3cc(F)c(C(=O)N[C@@H]4CCN(C)C4)cc3OC)ncc2C(F)(F)F)c(N(C)S(C)(=O)=O)c1 [Example 41]
9.41	8.40	COc1cc(N2CCN(CC(=O)N3CCOCC3)CC2)ccc1Nc1ncc(C(F)(F)F)c(NCc2ccc(C)cc2N(C)S(C)(=O)=O)n1 [Example 42]
9.40	8.70	COc1cc(C(=O)NC2CCN(C)CC2)c(F)cc1Nc1ncc(C(F)(F)F)c(NCc2ccc(C)cc2N(C)S(C)(=O)=O)n1 [Example 43]
9.38	8.70	COc1cc(C(=O)NC2CCN(C3CCOCC3)CC2)ccc1Nc1ncc(C(F)(F)F)c(NCc2ccc(C)cc2N(C)S(C)(=O)=O)n1 [Example 44]
9.36	8.52	CCN1CCC[C@H]1CNC(=O)c1ccc(Nc2ncc(C(F)(F)F)c(NCc3ccc(C)cc3N(C)S(C)(=O)=O)n2)c(OC)c1 [Example 45]
9.30	8.22	COc1cc(C(=O)N[C@H]2CCCN(C3CCCC3)C2)ccc1Nc1ncc(C(F)(F)F)c(NCc2ccc(C)cc2N(C)S(C)(=O)=O)n1 [Example 47]
9.29	8.40	COc1cc(C(=O)NC2CCC(NC(C)=O)CC2)ccc1Nc1ncc(C(F)(F)F)c(NCc2ccc(C)cc2N(C)S(C)(=O)=O)n1 (stereo not shown) [Example 48]
9.29	8.40	COc1cc(C(=O)NC2CCN3CCCC3C2)ccc1Nc1ncc(C(F)(F)F)c(NCc2ccc(C)cc2N(C)S(C)(=O)=O)n1 (stereo not shown) [Example 49]
9.28	8.70	CCc1cc(C(=O)NC2CCN(C)CC2)ccc1Nc1ncc(C(F)(F)F)c(NCc2ccc(C)cc2N(C)S(C)(=O)=O)n1 [Example 50]

SMILES	pEC50 [1]	pIC50 (PTK2)
COc1cc(C(=O)N[C@H]2CN3CCC2CC3)ccc1Nc1ncc(C(F)(F)F)c(NCc2ccc(C)cc2N(C)S(C)(=O)=O)n1 [Example 28]	9.57	8.40

Reference: patent publication US8377943B2, “2,4-diaminopyrimidine derivates as PTK2-inhibitors for the treatment of abnormal cell growth” (Boehringer Ingelheim International GmbH, priority 2008, dated 2013)
